Laboratory results as given in PubChem BioAssay AID464 (The Scripps Research Institute Molecular Screening Center, 2006).
The source made the active and inactive calls.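 Rule for the calls: active = Compounds that kill half the cells at a concentration of 5 micromolar or below, from the fitted or estimated CC50; inactive = CC50 above 5 micromolar.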

Tested on: Jurkat E6.1 viability, ATP luminescence, 48 h
Assay: viability loss in Jurkat T cells – cell-based, ATP luminescence, 48 h, 60K MLSMR, cytotoxicity control, dose response (AID 464)

Structure (SMILES) | CC50
COc1ccccc1-c1cc(C(=O)Nc2cccnc2)no1 | 146 nM
N#CC1=C(N)Oc2cc(N)ccc2C1C1CCCCC1 (centres undefined) | 2490 nM
O=S(=O)(NCc1ccncc1)c1ccc(Br)s1 | 1000 nM
COc1cccc(OC)c1C1=NCC(=O)Nc2c1oc1ccc(Br)cc21 | 693 nM
Cc1cc(C)c2ccc(N)nc2c1O | 6830 nM (inactive)
O=c1cc(-c2ccccc2)[nH]c2nc3ccccc3n12 | 9380 nM (inactive)
COc1ccc(N(CC(=O)Nc2cc(Cl)ccc2OC)S(=O)(=O)c2c(C)noc2C)cc1 | 2970 nM
COc1ccc(-c2cn3c(C)c(C(=O)Nc4cc(NC(C)=O)ccc4OC)sc3n2)cc1 | 2230 nM
Cc1ccc(Cl)cc1N1CCN(C(=O)COc2ccc(S(=O)(=O)NC(C)C)cc2)CC1 | 6430 nM (inactive)
CCCOc1ccc2ccccc2c1/C=N/n1c(C)nnc1-n1nc(C)cc1C | 1960 nM
Cc1sc(NC(=O)c2ccco2)nc1-c1ccc2c(c1)CC(C)N2C(=O)C1CC1 (centres undefined) | 16300 nM (inactive)
COc1ccc(C(=O)N2CCN(c3cccc(Cl)c3)CC2)c(OC)c1 | 8580 nM (inactive)
C(=C\c1ccccc1)/CSc1nnc(-c2ccccn2)n1Cc1ccco1 | 2280 nM
CC(=O)N1c2ccccc2N(Cc2ccc(C)cc2C)C(=O)C1(C)C | 2220 nM
CC1(C)CC(=O)C2=C(C1)OC1=C(C(=O)CC(C)(C)C1)C2c1ccc(O)cc1O | 2390 nM
Cc1ccc(C2NC(=O)c3ccccc3N2)s1 (centres undefined) | 4160 nM
Cc1nn(-c2nc3ccccc3s2)c(C)c1Oc1ccccc1O | > 40000 nM (inactive)
CCN(CC)c1ccc(-c2nn3c(-c4ccccc4OC)nnc3s2)cc1 | 115 nM
COc1ccccc1N1CCN(C(=O)C2c3ccccc3Oc3ccccc32)CC1 | 1270 nM
Cc1ccc(-c2nc(-c3ccccn3)no2)cc1 | 10300 nM (inactive)
CCOC(=O)N1CCN(C(=O)c2cc(-c3ccc(OCC)cc3)nc3ccccc23)CC1 | 1690 nM
COc1ccccc1-n1cnc2cc(NCc3ccco3)ccc21 | 313 nM

Structure (SMILES) | CC50
COC(=O)c1[nH]c2c(c1C)C(=O)CC(c1cccs1)C2 (centres undefined) | 677 nM
CCn1ncc(C2=NOC(C(=O)NCc3ccc(OC)cc3)C2)c1C (centres undefined) | 11800 nM (inactive)
CC(C)C(=O)NC(c1ccco1)c1ccc2cccnc2c1O (centres undefined) | 2890 nM
CCCc1[nH]nc2c1C(c1ccc(Br)s1)C(C#N)=C(N)O2 (centres undefined) | > 13000 nM (inactive)
COC(=O)C1=C(N)Oc2cc(N(C)C)ccc2C1c1ccccc1OC (centres undefined) | 2600 nM
COc1ccccc1N1CCN(Cc2cc(Br)c(O)c3ncccc23)CC1 | 7730 nM (inactive)
Oc1c(C(Nc2nc3ccccc3s2)c2ccco2)ccc2cccnc12 (centres undefined) | 7790 nM (inactive)
Oc1ccc(N=Cc2ccc(O)c(O)c2)cc1 | 25900 nM (inactive)
CCCCn1c(CN2CCN(c3ccccc3)CC2)nc2c1c(=O)n(C)c(=O)n2C | 10400 nM (inactive)
O=C(NCc1cccnc1)NC1(C(F)(F)F)Oc2ccc(Cl)cc2O1 (centres undefined) | 8080 nM (inactive)
CCOC(=O)c1[nH]c(C)c(C(=O)Nc2ccccc2F)c1C | 1420 nM
COc1ccccc1-c1nnc2sc(-c3cc4ccccc4o3)nn12 | 214 nM
CCOC(=O)c1c(-c2ccc(C)cc2C)csc1NC(=O)CSc1nnnn1C | 35000 nM (inactive)
Clc1ccc(-n2nnnc2Sc2ncnc3sccc23)cc1 | > 13000 nM (inactive)
Cc1cc(C(=O)CSc2nnc(-c3cccc(F)c3)n2N)c(C)n1Cc1ccc2c(c1)OCO2 | 9370 nM (inactive)
CCOC(=O)C1=C(N)n2c(s/c(=C\c3ccco3)c2=O)=C(C(=O)OCC)C1c1ccco1 (centres undefined) | 6770 nM (inactive)
Oc1ccc(COCc2ccccc2)c2cccnc12 | 3060 nM
CC(C)c1cc(C(=O)Nc2cc(Cl)ccc2O)no1 | > 40000 nM (inactive)
COc1ccc(C(=O)CSc2nnc(Cn3cnc4ccccc43)o2)cc1 | 2600 nM
CCCCCCn1ccc(=N)cc1 | 5080 nM (inactive)
COC(=O)c1[nH]c2c(c1C)C(=O)CC(c1ccccc1)C2 (centres undefined) | 391 nM
O=C(c1ccco1)N1CCN(C(=O)N2c3ccccc3Sc3ccccc32)CC1 | 99 nM

Structure (SMILES) | CC50
Oc1ccc(Cl)cc1CNc1ccc(Br)cn1 | > 40000 nM (inactive)
Cc1ccc(C(=O)Nc2ccc(Cl)cn2)cc1 | 4480 nM
CCOC(=O)CCS(=O)(=O)c1nc(-c2ccccc2)cc(C(F)(F)F)n1 | 4580 nM
Cn1cc(/C=N/n2cnc3scc(-c4ccccc4)c3c2=O)c2ccccc21 | 1100 nM
Cc1cc(NC(=O)CSc2nc(-c3ccco3)cc(C(F)(F)F)n2)no1 | 233 nM
COCCOC(=O)c1[nH]c2c(c1C)C(=O)CC(c1ccc(F)cc1)C2 (centres undefined) | 5370 nM (inactive)
Oc1cccc2ccc(Nc3ccccn3)nc12 | 1970 nM
COc1ccc(NC(=O)c2cc(-c3ccccc3OC)on2)cc1 | 1850 nM
CCN(CC)S(=O)(=O)c1cccc(C(=O)Nc2ccccc2)c1 | 18300 nM (inactive)
O=S1(=O)Nc2c(ccc3cccnc23)-c2ccccc21 | 4740 nM
Cc1ccc(-n2c(O)c(C=Nc3ccccc3N)c(=O)[nH]c2=O)cc1C | > 13000 nM (inactive)
CCN(C)c1ccc(/C=N\n2nnnc2N)cc1 | 4710 nM
CC(=O)c1c(C)[nH]c(C(=O)OCCCCN2C(=O)c3ccccc3C2=O)c1C | > 40000 nM (inactive)
Cc1noc(C)c1COC(=O)c1cccc(S(=O)(=O)N2CCCCCC2)c1 | 21400 nM (inactive)
C=CCn1c(O)c(C(C)=NCc2cc(OC)cc(OC)c2)c(=O)[nH]c1=O | 7660 nM (inactive)
COCCOC(=O)c1[nH]c2c(c1C)C(=O)CC(c1cc(OC)ccc1OC)C2 (centres undefined) | 4200 nM
COc1ccc(C(=O)c2ccc(N(C)C)cc2)c(OC)c1 | 1500 nM
CCN(C1CCCCC1)S(=O)(=O)c1ccc(S(=O)(=O)NCc2ccncc2)cc1 | 5320 nM (inactive)
CCOC(=O)N1CCN(c2c(F)cc3[nH]c(=S)[nH]c3c2Br)CC1 | > 4400 nM (inactive)
Cn1c(=O)oc2cc(S(=O)(=O)N3CCCc4ccccc43)ccc21 | 173 nM
CCCn1c(NC(=O)c2cccc(S(=O)(=O)N3CCCC3)c2)nc2ccccc21 | > 40000 nM (inactive)
CC(=O)Nc1ccccc1N(C)S(=O)(=O)c1ccc(C)cc1 | 4570 nM

Structure (SMILES) | CC50
NS(=O)(=O)c1ccc(CCNc2ncnc3sccc23)cc1 | 3370 nM
CS(=O)(=O)N1CCc2cc(S(=O)(=O)Nc3ccc4c(c3)OCCO4)ccc21 | 29100 nM (inactive)
COc1cc2c(cc1OC)C(C)N(C(=O)c1cc3ccccc3o1)CC2 (centres undefined) | 24400 nM (inactive)
COc1cc(Cn2c(-c3nonc3N)nc3ccccc32)ccc1C | 1560 nM
Cc1cccc(-n2c(O)c(C=Nc3ccccc3N)c(=O)[nH]c2=O)c1 | > 13000 nM (inactive)
COc1cc(NS(=O)(=O)c2ccc(C)cc2)c2ncccc2c1 | 10100 nM (inactive)
Cc1onc(-c2ccccc2)c1C(=O)Nc1cc(C(F)(F)F)ccc1N1CCOCC1 | 2150 nM
COc1ccc(-c2nnc(NC(=O)c3ccccc3C)o2)cc1 | > 40000 nM (inactive)
Cc1cc(=O)oc2cc(OCC(=O)N3c4ccccc4CC3C)ccc12 (centres undefined) | 756 nM
CCOc1ccc(-c2cc(CCCC(=O)Nc3cccc(OC)c3)no2)cc1 | 809 nM
CCc1nnc(NC(=O)c2ccc(S(=O)(=O)N(CC)Cc3ccccc3)cc2)o1 | 26000 nM (inactive)
COC(=O)/C=C/S(=O)(=O)c1ccc(NC(C)=O)cc1 | 2310 nM
O=C(NCc1ccccc1)c1noc2c1CCCC2 | 8770 nM (inactive)
Cc1cccc(Cn2c(NCC(C)O)nc3c2c(=O)n(C)c(=O)n3C)c1 (centres undefined) | 8240 nM (inactive)
CC1CC(C)CN(S(=O)(=O)c2ccc(C(=O)Nc3nnc(-c4cccs4)o3)cc2)C1 (centres undefined) | 12900 nM (inactive)
O=C(Oc1ccc2c(c1)OCO2)c1cc2c(s1)CCC2 | > 40000 nM (inactive)
Cc1cccc(N2CCN(c3cccc(C)c3)C2c2cccnc2)c1 | 15800 nM (inactive)
COc1cccc2sc(Nc3nc(-c4ccccn4)cs3)nc12 | 2810 nM
Nc1nc(-c2ccccc2)cc(N2CCCCC2)n1 | 877 nM
CCNc1nc2c(c(=O)n(C)c(=O)n2C)n1Cc1ccc(Cl)cc1 | 4090 nM
COc1ccc(CCNc2nnc(Sc3nnnn3-c3ccccc3)s2)cc1OC | 875 nM
Cc1cccc(Cn2c(NCCO)nc3c2c(=O)n(C)c(=O)n3C)c1 | 2320 nM

Structure (SMILES) | CC50
CC(=O)CC1OC(=O)C(Br)=C1NCc1ccccc1 (centres undefined) | 3910 nM
CCc1cc2c(=O)n(Cc3ccco3)c(SCc3c(C)noc3C)nc2s1 | 4400 nM
CCOC(=O)N1CCN(C(=O)C2CCCN(Cc3nc(-c4ccc(Cl)cc4)oc3C)C2)CC1 (centres undefined) | 4640 nM
N#Cc1nc(N2CCCCC2)nc(N2CCOCC2)n1 | 12900 nM (inactive)
CC(=O)c1cn(CC(=O)Nc2ccccc2)c2ccccc12 | 12600 nM (inactive)
O=C(Nc1nnc(-c2cccs2)o1)c1cccc(C(F)(F)F)c1 | 25700 nM (inactive)
CCOc1ccccc1CN(Cc1ccco1)S(=O)(=O)c1ccc(-n2cnnn2)c(OC)c1 | 4220 nM
CC(=O)c1c(N2CCN(Cc3ccccc3)CC2)[nH]c(-c2ccccc2)nc1=S | > 40000 nM (inactive)
C=CCNc1nc2c(c(=O)n(C)c(=O)n2C)n1CCCCCC | 2760 nM
Cc1cc(C)n2nc(SCC(=O)c3cc(C)n(-c4cc(C)on4)c3C)nc2n1 | 29400 nM (inactive)
O=C(Nc1nc(-c2ccc(S(=O)(=O)N3CCCCCC3)cc2)cs1)c1cccs1 | > 40000 nM (inactive)
CN1/C(=C/C(=O)c2nc(S(C)(=O)=O)ncc2Cl)C(C)(C)c2ccccc21 | > 13000 nM (inactive)
Cc1nn(C)c(C)c1CNC(=O)c1nn2c(c1Cl)NC(c1cccs1)CC2C(F)(F)F (centres undefined) | 15200 nM (inactive)
CCOc1ccccc1NC(=O)CN(c1ccc(OC)cc1)S(=O)(=O)c1c(C)noc1C | 1370 nM
O=C(NC1CC1)c1cc2c(s1)-c1ccccc1OC2 | 15600 nM (inactive)
COc1ccc(C(=O)n2c(-c3ccco3)nc3ccccc32)cc1 | 1790 nM
COc1ccccc1N1CCN(c2nc(C)nc3c2oc2ccccc23)CC1 | 1040 nM
O=C(Nc1nc(-c2ccccn2)cs1)c1ccc(Cl)s1 | 2120 nM
CCN(CC)c1ccc(NC(=O)c2cc(OC)cc(OC)c2)c(C)c1 | 1110 nM
Cc1ccc(C(=O)N2CCN(c3cccc(Cl)c3)CC2)cc1C | 19100 nM (inactive)
Cc1cc(N2CCN(c3nc4ccccc4s3)CC2)n2ncnc2n1 | 8410 nM (inactive)
